Assay results as given in ChEMBL document CHEMBL3507680, “University of Dundee, Gates Library screen for HepG2 cell viability”.

Experiment: Human HepG2 cell viability assay in 384 well format
Format: toxicity, cell-based
Parameters: dose 125 nL, time 70.5 hour; concentration not given beside the values
Details: HepG2 cells, read-out: Inhibition

Structure (SMILES)	cytotoxicity at 70.5 h [%]
Cc1nc(O)cc(C2CCN(Cc3ccc(F)c(F)c3)C2)n1 (configuration not stated)	-5.53
CN(C)CCOCC1CN(C(=O)c2ccsc2)Cc2ccnn2C1 (configuration not stated)	-5.3
Cc1cc(C)n(-c2nc(C(=O)NCCN3CCC(C)CC3)cs2)n1	-5.84
O=C(c1cnccn1)N1CCOCC2(CCN(C3CCOCC3)C2)C1 (configuration not stated)	-15.5
O=C(CCN1CCC(C(=O)c2cc(F)ccc2F)CC1)NC1CCCC1	-17.8
CC(C)c1nn(C)c(Cl)c1CNCC(O)c1cccc(F)c1 (configuration not stated)	-10.3
CC(C)n1cnnc1C1CCCN(S(=O)(=O)CCCC#N)C1 (configuration not stated)	-35.2
c1cncc(CN2CCc3c(CNc4nccs4)n[nH]c3C2)c1	-25
O=C([C@H]1CC[C@@H]2[C@@H](CCN2C2CCCCC2)O1)N1CCOCC1	-7.67
Cc1cccc(N2CCOCC3(C2)CN(c2cncnc2)C(=O)CO3)n1 (configuration not stated)	-6.08
NC(=O)c1ccc(C2CCCN2C(=O)CCn2nnc3ccccc32)s1 (configuration not stated)	-4.98
COCCN1C(=O)C2(CCC(C(=O)Nc3ccc(F)cc3)CC2)N=C1C (configuration not stated)	-7.58
CCOC(=O)N1CC(C)=C(C)CN1C(=O)Nc1ccc(Cl)c(Cl)c1	6.17
NS(=O)(=O)CCNC(=O)c1nnn(-c2ccc(F)cc2)c1C1CC1	-2.85
CSC(C)C(=O)NS(=O)(=O)CCc1ccccc1 (configuration not stated)	-2.58
CCc1ccc(C(COC)NC(=O)c2ccc(O)nc2)o1 (configuration not stated)	-6.34
CN1CCN(Cc2cnc3n2CCN(C(=O)c2ccoc2)C3)CC1	-7.31
CCN1CC2(CCCCN2C(=O)c2ccn(C)n2)CC1=O (configuration not stated)	0.273
O=C(c1cn2cc(Cl)ccc2n1)N1CCC(CCn2cccn2)CC1	19.9

Structure (SMILES)	cytotoxicity at 70.5 h [%]
CC(C)=CCN1C[C@H]2CC[C@@H]1CN(C(=O)Cn1c(C)cc(C)nc1=O)C2	-4.66
O=C(Cc1ccccc1F)N1CCC[C@@H]1Cn1c(=O)oc2ccccc21	6.08
Cc1cc(CN2CCC(c3ccnn3CCO)CC2)no1	-15.5
Cc1ccc(C(=O)N2CCCC3(CCCC(=O)N3C)C2)cc1F (configuration not stated)	-4.57
CCc1nnc2n1CCN(C(=O)c1cc(Cl)c[nH]1)C2	-1.1
Cc1cccc(CN2CCC[C@@H]3CN(C(=O)c4ccco4)C[C@@H]32)n1	-7.63
CC(C)NC(=O)C1CN(C(=O)c2cccs2)CC12CCOCC2 (configuration not stated)	-1.8
COCC(=O)Nc1ccc(-c2noc([C@@H]3CCCN3)n2)cn1	-0.348
CCc1cnc(N)nc1N(C)CCc1cnn(C)c1	45.7
CN(C)CC1(O)CCCN(C(=O)Cn2nc3ccccc3n2)CC1 (configuration not stated)	11.1
CC(C)NC(=O)c1ccc2c(c1)nc1n2CCN(C(C)C)C1	-13.4
CC(C)(C)c1ccc(OCc2nc3c(c(=O)[nH]2)CCNC3)cc1	-7.79
CC(=O)N1CCOC(c2nc(N(C)C)ncc2-c2cccc(F)c2)C1 (configuration not stated)	-7.24
CCc1n[nH]c(C2CN(C(=O)c3nc(C)n4ccccc34)CCO2)n1 (configuration not stated)	-20.1
COc1ncccc1CNC1CCc2c(ccc(=O)n2CC2CC2)C1 (configuration not stated)	-8.76
Cc1nc(CN2CCN(C)C(=O)C23CCN(C(C)C)CC3)cs1	-9.48
O=C(CC1=CCCCC1)Nc1ccc(CN2C(=O)CCC2=O)cc1	-3.73
Cc1nn(C)c(N(C)C)c1CNCc1cccc(CN(C)C)c1	-3.97
COCCN1CCO[C@H]2CN(C(=O)c3cccs3)C[C@H]21	-7.52

Structure (SMILES)	cytotoxicity at 70.5 h [%]
CCCOc1cc(F)ccc1NC(=O)NCc1noc(C)n1	-3.88
COCCNC(=O)c1nc(-c2ccc3cc[nH]c3c2)no1	-17.1
CN(CC(F)(F)F)C(=O)c1ccc(F)c(NS(C)(=O)=O)c1	-1.16
Cn1c(=O)[nH]c(=O)n2c(CC(=O)Nc3ccccc3)cnc12	-15.7
CC(=O)NCC1CCN(C(=O)c2c(C)[nH]c3ccc(Cl)cc23)CC1	-0.185
CN(C)C(=O)N1C[C@@H]2CC[C@H](C1)N(C(=O)c1c(Cl)cccc1Cl)C2	-13.7
Cc1ccc(CN2CCOC3(CCN(C(=O)N4CCCC4)CC3)C2)cc1	-2.45
Cn1cc(I)c(C(=O)NC2CCCCC2)n1	28.2
COCCC(=O)N1CCc2c(CNc3ncccn3)cncc2C1	-1.53
COc1ccc(CNCCc2cc(F)cc3c2OCOC3)cc1O	2.79
C=C(C)COc1ccccc1NC(=O)N1CCOCC1CO (configuration not stated)	7.4
CC(C)Cc1cc(C(=O)N2CCCN(c3cccnn3)CC2)[nH]n1	-5.32
NC(=O)c1ccc(CNC(=O)Nc2cn[nH]c2)cc1	16
NC(=O)c1ccc(S(=O)(=O)NCCc2ccccn2)cc1	1.11
COc1ncccc1C(=O)NCC1Cc2ccccc2O1 (configuration not stated)	-6.43
O=C(c1ccc(Cl)cc1)N1CCC(N2CCOC2=O)CC1	-7.62
Cc1cc(C(=O)NCCN2CCCCC2C)nn1C(C)(C)C (configuration not stated)	-10.9
COc1ncc(C(=O)NCc2ccc(Br)cc2)cn1	-2.74
CC(C)COc1cncc(NC(CO)c2ccco2)n1 (configuration not stated)	11.4
